Test results from patent US11311513B2, “Methods, agents, and compositions for the treatment of acute myeloid leukemia” (UNIVERSITY OF CINCINNATI, priority 2017, dated 2022).

What was measured:
[1] = system: global 5hmC level; assay: Global 5hmC level (5hmC labeling and dot-blotting); type: cell-based; conditions: for global 5hmC levels: MONOMAC-6 cells
Procedure: (§1) FIG. 1. […] Cell viability was analyzed by MTS 48 hours post-treatment. […] TET1 expression levels were detected by qPCR 48 hrs post-treatment. […] TET1 expression levels (e) and cell viability (f) were detected 24 hrs post-treatment. *, P<0.05, two-tailed t-test. MM6, MONOMAC-6. Error bar indicates SD of triplicate experiments.
The 5-hydroxymethylcytosine (5-hmC) labeling reactions and 5hmC dot blotting were performed as described previously (Huang, H., et al. TET1 plays an essential oncogenic role in MLL-rearranged leukemia. Proc Natl Acad Sci USA 110, 11994-11999 (2013)). Briefly, 3 jig sonicated genomic DNA (100-500 bp) fragments were incubated in solution containing 50 mM Hepes buffer (pH 7.9), 25 mM MgCl2, 100 jiM UDP-6-N3-Glc, and 1 jiM beta-glucosyltransferase (f3-GT) for 1 hr at 37° C. The CLICK was performed with addition of 150 jiM dibenzocyclooctyne modified biotin into the purified DNA solution, and the reaction mixture was incubated for 2 hrs at 37° C. Six hundred nanograms of labeled genomic DNA samples were spotted on an Amersham Hybond-N+ membrane (GE Healthcare, Little Chalfont, UK). DNA was fixed to the membrane by Stratagene UV Stratalinker 2400 (auto-crosslink). The membrane was then blocked with 5% BSA and incubated with Avidin-HRP (1:40,000) (Bio-Rad, Hercules, Calif.), and then visualized by enhanced chemiluminescence.

[2] = system: TET1; assay: TET1 expression by qPCR in AML cell lines; type: cell-based
Procedure: as §1
Total RNA was extracted with the miRNeasy extraction kit (Qiagen) and was used as template for quantitative RT-PCR (qPCR) analysis.

[3] = system: MONOMAC-6 cells; assay: MTS cell viability, MONOMAC-6; type: cell-based; conditions: 48 hrs
Procedure: In order to identify chemical compounds that may target TET1 signaling, the drug-sensitivity/gene expression database of a total of 20,602 chemical compounds in the NCI-60 collection of cancer cell samples was searched.
All cell lines were authenticated through STR profiling yearly.
(§2) These experiments were conducted as described previously (Jiang, X., et al., Blockade of miR-150 Maturation by MLL-Fusion/MYC/LIN-28 Is Required for MLL-Associated Leukemia, Cancer Cell 22:524-35 (2012); Li, Z., et al., miR-196b directly targets both HOXA9/MEIS1 oncogenes and FAS tumour suppressor in MLL-rearranged leukaemia, Nat Commun 2:688 (2012)) with ApoLive-Glo Multiplex Assay Kit, or CellTiter 96 AQueous Non-Radioactive Cell Proliferation Assay Kit (Promega, Madison, Wis.).

[4] = system: NB4 cells; assay: MTS cell viability, TET1-low control cell line; type: cell-based; conditions: up to 500 nM, 48 hrs
Procedure: as §1
MONOMAC-6, THP-1, KOCL-48, KASUMI-1, ML-2 and NB4 cells were purchased from ATCC (Manassas, Va.), and cultured as described previously (Jiang, X., et al. Blockade of miR-150 Maturation by MLL-Fusion/MYC/LIN-28 Is Required for MLL-Associated Leukemia. Cancer Cell 22, 524-535 (2012); Li, Z., et al. miR-196b directly targets both HOXA9/MEIS1 oncogenes and FAS tumour suppressor in MLL-rearranged leukaemia. (Li, Z., et al., miR-196b directly targets both HOXA9/MEISV oncogenes and FAS tumour suppressor in MLL-rearranged leukaemia, Nat Commun 2:688 (2012)). All cell lines were tested for mycoplasma contamination yearly using a PCR Mycoplasma Test Kit (PromoKine) and were proven to be mycoplasma negative. All cell lines were authenticated through STR profiling yearly. […]

[5] = system: normal hematopoietic stem/progenitor cells (c-Kit+ BM cells); assay: MTS and apoptosis assays in normal HSPCs; type: cell-based, mice; conditions: 50 nM; 3 days
Procedure: FIG. 14. […] BM cells of leukemic mice with MLL-AF9 fusion (MA9-AML) or FLT3-ITD/NPM1^mut, and c-Kit^+ HSPCs from a pool of 6 healthy donor mice were cultured in liquid medium. […] MTS (a), apoptosis assays (b) and qPCR (c) were conducted 3 days after cell seeding or drug treatments. Error bar indicates SD of triplicate experiments.
as §2

[6] = system: binding of STAT3/5 to TET1 promoter; assay: ChIP-qPCR in MONOMAC-6 cells; type: cell-based; conditions: 500 nM, 48 hrs
Procedure: ChIP assay was conducted as described previously (Barry, S. P., et al., STAT3 modulates the DNA damage response pathway, Int J Exp Pathol 91:506-14 (2010)), with SABiosciences Corporation's ChampionChIP One-Day kit (Qiagen, Frederick, Md.) following the manufacturer's protocol. Chromatin from MONOMAC-6 cells were cross-linked, sonicated into an average size of ˜500 bp, and then immunoprecipitated with antibodies against STAT3 (Santa Cruz, Dallas, Tex.), STAT5 (BD Biosciences, San Jose, Calif.), or IgG (Abcam, Cambridge, Mass.). Purified DNA was amplified by real-time qPCR using primers targeting the promoter of TET1 as described before (Huang, H., et al., TET1 plays an essential oncogenic role in MLL-rearranged leukemia, Proc Natl Acad Sci USA 110:11994-99 (2013)). Sequences of qPCR primers are: Site 1 forward: 5′-[…]-3′ (SEQ ID NO: 3), reverse: 5′-[…]-3′ (SEQ ID NO: 4); Site 2 forward: 5′-[…]-3′ (SEQ ID NO: 5), reverse: 5′-[…]-3′ (SEQ ID NO: 6); Site 3 forward: 5′-[…]-3′ (SEQ ID NO: 7), reverse: 5′-[…]-3′ (SEQ ID NO: 8); Site 4 forward: 5′-[…]-3′ (SEQ ID NO: 9); reverse: 5′-[…]-3′ (SEQ ID NO: 10).

SMILES	global 5hmC level ([1]; 300 nM, THP-1 and MONOMAC-6 cells)	global 5hmC levels [1]	TET1 transcription ([2]; 25 nM, 24 hours, MONOMAC-6, THP-1 and KOCL-48 cells)	level of TET1 expression ([2]; TET1-high AML cells, 300 nM, qPCR 48 hrs)	IC50 ([3]; Homo sapiens, MONO-MAC-6, MONOMAC-6 cells, unit inferred, read-out: IC50 MMC6) [nM]	inhibition of viability of NB4 cells [4]	toxicity on normal HSPCs (viability, apoptosis) [5]	binding of STAT3 and STAT5 on the TET1 loci/promoter [6]	expression of TET1, TET2, TET3 ([2]; MONOMAC-6 cells, 500 nM, 48 hrs)	MONOMAC-6 cell viability among 30 analogues ([3]; MTS)
COc1cc(C(c2cc3c(cc2O)OCO3)N2CCCC2)cc(OC)c1OC (centres unmarked) [NSC-370284, 6-(1-Pyrrolidinyl(3,4,5-trimethoxyphenyl)methyl)-1,3-benzodioxol-5-ol]	significantly repressed	significantly reduced	significant down-regulation	significantly repressed	0.385	no significant inhibition	no obvious toxicity	could be disturbed	–	–
CC(C)(C)c1cc(C(c2cc3c(cc2O)OCO3)N2CCOCC2)cc(C(C)(C)C)c1O (centres unmarked) [UC-514321, 6-{[4-Hydroxy-3,5-bis(2-methyl-2-propanyl)phenyl](4-morpholinyl)methyl}-1,3-benzodioxol-5-ol]	–	significantly reduced	–	–	–	no inhibitory effect	no obvious toxicity	remarkable repression	significantly repressed expression of TET1, but not TET2 or TET3	most significantly repressed
